Test results published in patent US5395611A, “Phenolic amine depigmenting and antimelanoma agents” (The Governors of the University of Alberta, priority 1992, dated 1995).
“Also recorded” adds a separate entry of the source.

Columns and labels:
[1] = tested on: melanocytes; test: Light and electron microscopy of follicular melanocytes; type: in vivo, mice; conditions: i.p.
Protocol: In […] of 4 mice (1 control and 1 for each compound) were treated daily with the control or compound injected i.p. The compounds tested were 4-S-CAP, N-Ac-4-S-CAP and α-Me-4-S-CAP. Samples of skin and regrowing hair follicles were excised under brief general anaesthesia on day 10 (late anagen phase), fixed in Karnovsky's solution (2.5% glutaraldehyde and 2.5% paraformaldehyde in 011M cacodylate buffer), and refixed in 1% osmium tetroxide in cadodylate buffer. Tissues were stained en bloc with 1.5% uranyl acetate in o.1M veronal buffer for 30 min, dehydrated in graded ethanol solutions, embedded in epoxy resin, and sectioned with a Potter-Blum ultramicrotome MT II. Sections 1.0 μm thick were stained with methylene blue for light microscopy, thin sections were stained with led citrate for electron microscopy.

[2] = tested on: plasma monoamine oxidase (MAO); conditions: in words, prior knowledge; cited from earlier work
[3] = tested on: black guinea pig skin; conditions: topical application, cited from earlier work

Compound: NCCSc1ccc(O)cc1 [4-S-CAP, 4-S-cysteaminylphenol, reference compound]
- Electron microscopy of melanocytes/melanosomes ([1]; 10 days): contained immature melanosomes at stages II and III
- Light microscopy of hair follicles ([1]; day 10): the hair follicles contained functioning melanocytes and melanin pigments transferred into keratonocytes, although they were much sparser than in the controls
- Substrate for plasma MAO (converted into aldehyde form) [2]: substrate for monoamineoxidase (MAO); also recorded: substrate not only for tyrosinase, but also for plasma monoamineoxidase (MAO)
- Inflammatory changes of the skin ([3]; guinea pigs): inflammatory changes of the skin of the guinea pigs was prominent
- Depigmentation of black guinea pig skin [3]: demonstrated depigmenting properties
